Reference: US20250235460A1, “COMBINATION THERAPY USING GLUCOSE-DEPENDENT INSULINOTROPIC POLYPEPTIDE RECEPTOR ANTAGONIST COMPOUNDS AND GLP-1 RECEPTOR AGONIST COMPOUNDS” (Pfizer Inc., priority 2024, published 2025)

Tests used:
human GLP-1R [1] = biological target: human GLP-1R (Homo sapiens, UniProt P43220, G168S); test: CHO GLP-1R Clone H6 cAMP HTRF agonist assay (Assay 1, high receptor density); format: cell-based; conditions: for EC50: CHO GLP-1R clone H6, cAMP HTRF, geometric mean; for Emax: read-out: Assay 1 Emax (%)
Chain of human GLP-1R (Homo sapiens, UniProt P43220, G168S) (P43220 24-463 G168S): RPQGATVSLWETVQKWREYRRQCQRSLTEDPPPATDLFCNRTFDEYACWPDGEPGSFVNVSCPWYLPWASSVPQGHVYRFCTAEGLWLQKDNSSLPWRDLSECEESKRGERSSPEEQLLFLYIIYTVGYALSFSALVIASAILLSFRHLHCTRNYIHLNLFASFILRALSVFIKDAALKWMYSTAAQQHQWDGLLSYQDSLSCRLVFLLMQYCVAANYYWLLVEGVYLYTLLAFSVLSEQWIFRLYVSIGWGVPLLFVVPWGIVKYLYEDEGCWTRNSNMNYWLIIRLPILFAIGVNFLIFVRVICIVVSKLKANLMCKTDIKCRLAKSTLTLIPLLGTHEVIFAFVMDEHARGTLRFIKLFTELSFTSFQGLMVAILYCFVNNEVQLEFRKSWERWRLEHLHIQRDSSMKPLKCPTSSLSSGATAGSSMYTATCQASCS
Outline: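 Replicate runs were pooled. Potencies were averaged geometrically and maximal efficacies arithmetically, then rounded to two significant figures.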

human GLP-1R [2] = biological target: human GLP-1R (Homo sapiens, UniProt P43220, L260F); test: CHO GLP-1R Clone C6 cAMP HTRF agonist assay (Assay 2, low receptor density); format: cell-based; conditions: for EC50: CHO GLP-1R clone C6, cAMP HTRF, geometric mean
Chain of human GLP-1R (Homo sapiens, UniProt P43220, L260F) (P43220 24-463 L260F): as the sequence (P43220 24-463 G168S) above, with S145G, L237F counted along it
Excerpt: In Table 5 and Table 6, assay data are presented to two (2) significant figures as the geometric mean (EC50s) and arithmetic mean (Emax) based on the number of replicates listed (Number). A blank cell means there was no data for that Example or the Emax was not calculated.

[3] = CHO GLP-1R clone H6, arithmetic mean, relative to saturating GLP-1 (1 μM)
[4] = CHO GLP-1R clone C6, arithmetic mean, relative to saturating GLP-1 (1 μM)

An EC50 (human GLP-1R [1]) of 70 nM, an Emax (human GLP-1R [1]; [3]) of 80% and an EC50 (human GLP-1R [2]) of 1800 nM were found for `N#Cc1ccc(COc2cccc(C3CCN(Cc4nc5ccc(C(=O)O)cc5n4C[C@H]4CCCO4)CC3)n2)cc1` [Compound 132B, 2-[(4-{6-[(4-cyanobenzyl)oxy]pyridin-2-yl}piperidin-1-yl)methyl]-1-[(2R)-tetrahydrofuran-2-ylmethyl]-1H-benzimidazole-6-carboxylic acid] in this work. The Emax (human GLP-1R [2]; [4]) was 85%.

An EC50 (human GLP-1R [1]) of 190 nM, an Emax (human GLP-1R [1]; [3]) of 91% and an EC50 (human GLP-1R [2]) of 1400 nM were found for `C[C@H]1CN(c2ccc(F)c(OCc3ccc(F)cc3F)n2)CCN1Cc1nc2ccc(C(=O)O)cc2n1C[C@@H]1CCO1` [Compound 133B, 2-{[(2S)-4-{6-[(2,4-difluorobenzyl)oxy]-5-fluoropyridin-2-yl}-2-methylpiperazin-1-yl]methyl}-1-[(2S)-oxetan-2-ylmethyl]-1H-benzimidazole-6-carboxylic acid] in this work. The Emax (human GLP-1R [2]; [4]) was 47%.

An EC50 (human GLP-1R [1]) of 300 nM, an Emax (human GLP-1R [1]; [3]) of 92% and an EC50 (human GLP-1R [2]) of 7700 nM were found for `C[C@H]1CN(c2cccc(OCc3ccc(F)cc3F)n2)CCN1Cc1nc2ccc(C(=O)O)cc2n1C[C@@H]1CCO1` [Compound 134B, 2-{[(2S)-4-{6-[(2,4-difluorobenzyl)oxy]pyridin-2-yl}-2-methylpiperazin-1-yl]methyl}-1-[(2S)-oxetan-2-ylmethyl]-1H-benzimidazole-6-carboxylic acid] in this work. It also gave an Emax (human GLP-1R [2]; [4]) of 100%.

An EC50 (human GLP-1R [1]) of 260 nM, an Emax (human GLP-1R [1]; [3]) of 88% and an EC50 (human GLP-1R [2]) of 5600 nM were found for `C[C@H]1CN(c2cccc(OCc3ccc(Cl)cc3F)n2)CCN1Cc1nc2ccc(C(=O)O)cc2n1C[C@@H]1CCO1` [Compound 135B, 2-{[(2S)-4-{6-[(4-chloro-2-fluorobenzyl)oxy]pyridin-2-yl}-2-methylpiperazin-1-yl]methyl}-1-[(2S)-oxetan-2-ylmethyl]-1H-benzimidazole-6-carboxylic acid] in this work. For the same compound, the Emax (human GLP-1R [2]; [4]) was 86%.

An EC50 (human GLP-1R [1]) of 150 nM, an Emax (human GLP-1R [1]; [3]) of 86% and an EC50 (human GLP-1R [2]) of 4100 nM were found for `C[C@H]1CN(c2cccc(OCc3ccc(Cl)cc3F)n2)CCN1Cc1nc2ccc(C(=O)O)nc2n1C[C@@H]1CCO1` [Compound 136B, 2-{[(2S)-4-{6-[(4-chloro-2-fluorobenzyl)oxy]pyridin-2-yl}-2-methylpiperazin-1-yl]methyl}-3-[(2S)-oxetan-2-ylmethyl]-3H-imidazo[4,5-b]pyridine-5-carboxylic acid] in this work. It also gave an Emax (human GLP-1R [2]; [4]) of 110%.

An EC50 (human GLP-1R [1]) of 90 nM, an Emax (human GLP-1R [1]; [3]) of 76% and an EC50 (human GLP-1R [2]) of 1800 nM were found for `C[C@H]1CN(c2cccc(OCc3ccc(C#N)cc3F)n2)CCN1Cc1nc2ccc(C(=O)O)nc2n1C[C@@H]1CCO1` [Compound 137B, 2-{[(2S)-4-{6-[(4-cyano-2-fluorobenzyl)oxy]pyridin-2-yl}-2-methylpiperazin-1-yl]methyl}-3-[(2S)-oxetan-2-ylmethyl]-3H-imidazo[4,5-b]pyridine-5-carboxylic acid] in this work. For the same compound, the Emax (human GLP-1R [2]; [4]) was 89%.

`C[C@H]1CN(c2cccc(OCc3ccc(C#N)cc3)n2)CCN1Cc1nc2ccc(C(=O)O)cc2n1C[C@@H]1CCO1` [Compound 138B, 2-{[(2S)-4-{6-[(4-cyanobenzyl)oxy]pyridin-2-yl}-2-methylpiperazin-1-yl]methyl}-1-[(2S)-oxetan-2-ylmethyl]-1H-benzimidazole-6-carboxylic acid] was tested, and the “Assay 1 Emax (%)” value (human GLP-1R [1]; [3]) was 95% and the “Assay 2 Emax (%)” value (human GLP-1R [2]; [4]) was 89%.

An EC50 (human GLP-1R [1]) of 150 nM, an Emax (human GLP-1R [1]; [3]) of 74% and an EC50 (human GLP-1R [2]) of 1200 nM were found for `N#Cc1ccc(COc2cccc(C3CCN(Cc4nc5ccc(C(=O)O)cc5n4Cc4ncco4)CC3)n2)c(F)c1` [Compound 139B, 2-[(4-{6-[(4-cyano-2-fluorobenzyl)oxy]pyridin-2-yl}piperidin-1-yl)methyl]-1-(1,3-oxazol-2-ylmethyl)-1H-benzimidazole-6-carboxylic acid] in this work. For the same compound, the Emax (human GLP-1R [2]; [4]) was 44%.

An EC50 (human GLP-1R [1]) of 36 nM, an Emax (human GLP-1R [1]; [3]) of 84% and an EC50 (human GLP-1R [2]) of 150 nM were found for `N#Cc1ccc(COc2cccc(N3CCN(Cc4nc5ccc(C(=O)O)cc5n4Cc4ncco4)CC3)n2)c(F)c1` [Compound 140B, 2-[(4-{6-[(4-cyano-2-fluorobenzyl)oxy]pyridin-2-yl}piperazin-1-yl)methyl]-1-(1,3-oxazol-2-ylmethyl)-1H-benzimidazole-6-carboxylic acid] in this work. The Emax (human GLP-1R [2]; [4]) was 92%.

An EC50 (human GLP-1R [1]) of 6 nM, an Emax (human GLP-1R [1]; [3]) of 73% and an EC50 (human GLP-1R [2]) of 150 nM were found for `N#Cc1ccc(COc2cccc(C3CCN(Cc4nc5ccc(C(=O)O)cc5n4Cc4cnco4)CC3)n2)c(F)c1` [Compound 141B, 2-[(4-{6-[(4-cyano-2-fluorobenzyl)oxy]pyridin-2-yl}piperidin-1-yl)methyl]-1-(1,3-oxazol-5-ylmethyl)-1H-benzimidazole-6-carboxylic acid] in this work. For the same compound, the Emax (human GLP-1R [2]; [4]) was 84%.

An EC50 (human GLP-1R [1]) of 9 nM, an Emax (human GLP-1R [1]; [3]) of 82% and an EC50 (human GLP-1R [2]) of 170 nM were found for `N#Cc1ccc(COc2cccc(N3CCN(Cc4nc5ccc(C(=O)O)cc5n4Cc4cnco4)CC3)n2)c(F)c1` [Compound 142B, 2-[(4-{6-[(4-cyano-2-fluorobenzyl)oxy]pyridin-2-yl}piperazin-1-yl)methyl]-1-(1,3-oxazol-5-ylmethyl)-1H-benzimidazole-6-carboxylic acid] in this work. For the same compound, the Emax (human GLP-1R [2]; [4]) was 85%.

An EC50 (human GLP-1R [1]) of 140 nM, an Emax (human GLP-1R [1]; [3]) of 72% and an EC50 (human GLP-1R [2]) of 1600 nM were found for `Cn1cncc1Cn1c(CN2CCC(c3cccc(OCc4ccc(Cl)cc4F)n3)CC2)nc2ccc(C(=O)O)cc21` [Compound 143B, 2-[(4-{6-[(4-chloro-2-fluorobenzyl)oxy]pyridin-2-yl}piperidin-1-yl)methyl]-1-[(1-methyl-1H-imidazol-5-yl)methyl]-1H-benzimidazole-6-carboxylic acid] in this work. The Emax (human GLP-1R [2]; [4]) was 46%.

An EC50 (human GLP-1R [1]) of 5.8 nM, an Emax (human GLP-1R [1]; [3]) of 72% and an EC50 (human GLP-1R [2]) of 94 nM were found for `Cn1nncc1Cn1c(CN2CCC(c3cccc(OCc4ccc(Cl)cc4F)n3)CC2)nc2ccc(C(=O)O)cc21` [Compound 144B, 2-[(4-{6-[(4-chloro-2-fluorobenzyl)oxy]pyridin-2-yl}piperidin-1-yl)methyl]-1-[(1-methyl-1H-1,2,3-triazol-5-yl)methyl]-1H-benzimidazole-6-carboxylic acid] in this work. For the same compound, the Emax (human GLP-1R [2]; [4]) was 76%.

An EC50 (human GLP-1R [1]) of 120 nM, an Emax (human GLP-1R [1]; [3]) of 76% and an EC50 (human GLP-1R [2]) of 2200 nM were found for `O=C(O)c1ccc2nc(CN3CCC(c4cccc(OCc5ccc(Cl)cc5F)n4)CC3)n(Cc3cnco3)c2c1` [Compound 145B, 2-[(4-{6-[(4-chloro-2-fluorobenzyl)oxy]pyridin-2-yl}piperidin-1-yl)methyl]-1-(1,3-oxazol-5-ylmethyl)-1H-benzimidazole-6-carboxylic acid] in this work. It also gave an Emax (human GLP-1R [2]; [4]) of 83%.

An EC50 (human GLP-1R [1]) of 43 nM, an Emax (human GLP-1R [1]; [3]) of 82% and an EC50 (human GLP-1R [2]) of 680 nM were found for `C[C@H]1CN(c2cccc(OCc3ccc(C#N)cc3F)n2)CCN1Cc1nc2ccc(C(=O)O)cc2n1Cc1ncco1` [Compound 146B, 2-{[(2S)-4-{6-[(4-cyano-2-fluorobenzyl)oxy]pyridin-2-yl}-2-methylpiperazin-1-yl]methyl}-1-(1,3-oxazol-2-ylmethyl)-1H-benzimidazole-6-carboxylic acid] in this work. The Emax (human GLP-1R [2]; [4]) was 110%.

An EC50 (human GLP-1R [1]) of 770 nM, an Emax (human GLP-1R [1]; [3]) of 78% and an EC50 (human GLP-1R [2]) of over 15000 nM were found for `O=C(O)c1ccc2nc(CN3CCC(c4cccc(OCc5ccc(F)cc5F)n4)CC3)n(Cc3ncco3)c2c1` [Compound 149B, 2-[(4-{6-[(2,4-difluorobenzyl)oxy]pyridin-2-yl}piperidin-1-yl)methyl]-1-(1,3-oxazol-2-ylmethyl)-1H-benzimidazole-6-carboxylic acid] in this work. For the same compound, the Emax (human GLP-1R [2]; [4]) was 100%.

An EC50 (human GLP-1R [1]) of 110 nM, an Emax (human GLP-1R [1]; [3]) of 71% and an EC50 (human GLP-1R [2]) of 3000 nM were found for `CCn1cncc1Cn1c(CN2CCC(c3cccc(OCc4ccc(F)cc4F)n3)CC2)nc2ccc(C(=O)O)cc21` [Compound 150B, 2-[(4-{6-[(2,4-difluorobenzyl)oxy]pyridin-2-yl}piperidin-1-yl)methyl]-1-[(1-ethyl-1H-imidazol-5-yl)methyl]-1H-benzimidazole-6-carboxylic acid] in this work. The Emax (human GLP-1R [2]; [4]) was 92%.

An EC50 (human GLP-1R [1]) of 22 nM, an Emax (human GLP-1R [1]; [3]) of 87% and an EC50 (human GLP-1R [2]) of 280 nM were found for `O=C(O)c1ccc2nc(CN3CCN(c4cccc(OCc5ccc(Cl)cc5F)n4)CC3)n(Cc3ncco3)c2c1` [Compound 151B, 2-[(4-{6-[(4-chloro-2-fluorobenzyl)oxy]pyridin-2-yl}piperazin-1-yl)methyl]-1-(1,3-oxazol-2-ylmethyl)-1H-benzimidazole-6-carboxylic acid] in this work.

An EC50 (human GLP-1R [1]) of 24 nM, an Emax (human GLP-1R [1]; [3]) of 76% and an EC50 (human GLP-1R [2]) of 1200 nM were found for `Cn1cncc1Cn1c(CN2CCN(c3cccc(OCc4ccc(Cl)cc4F)n3)CC2)nc2ccc(C(=O)O)cc21` [Compound 153B, 2-[(4-{6-[(4-chloro-2-fluorobenzyl)oxy]pyridin-2-yl}piperazin-1-yl)methyl]-1-[(1-methyl-1H-imidazol-5-yl)methyl]-1H-benzimidazole-6-carboxylic acid] in this work. It also gave an Emax (human GLP-1R [2]; [4]) of 94%.

An EC50 (human GLP-1R [1]) of 6 nM, an Emax (human GLP-1R [1]; [3]) of 80% and an EC50 (human GLP-1R [2]) of 78 nM were found for `Cn1cncc1Cn1c(CN2CCN(c3cccc(OCc4ccc(C#N)cc4F)n3)CC2)nc2ccc(C(=O)O)cc21` [Compound 154B, 2-[(4-{6-[(4-cyano-2-fluorobenzyl)oxy]pyridin-2-yl}piperazin-1-yl)methyl]-1-[(1-methyl-1H-imidazol-5-yl)methyl]-1H-benzimidazole-6-carboxylic acid] in this work. The Emax (human GLP-1R [2]; [4]) was 88%.

An EC50 (human GLP-1R [1]) of 7.9 nM, an Emax (human GLP-1R [1]; [3]) of 80% and an EC50 (human GLP-1R [2]) of 150 nM were found for `O=C(O)c1ccc2nc(CN3CCC(c4cccc(OCc5ccc(Cl)cc5F)n4)CC3)n(Cc3cocn3)c2c1` [Compound 155B, 2-[(4-{6-[(4-chloro-2-fluorobenzyl)oxy]pyridin-2-yl}piperidin-1-yl)methyl]-1-(1,3-oxazol-4-ylmethyl)-1H-benzimidazole-6-carboxylic acid] in this work. It also gave an Emax (human GLP-1R [2]; [4]) of 100%.
